Results reported in patent US20200308624A1, “Phosphate and tensin homolog (PTEN) for the detection of autoimmune diseases or conditions” (Universitätsmedizin der Johannes Gutenberg-Universität Mainz, priority 2019, published 2020).

What was measured:
Assay type in all cases: cell-based, human
[1] = system: Treg-resistant T cells from MS patients; assay: Suppressor assay: MS T cells cocultured with Treg, proliferation by 3H-Tdr incorporation; settings: anti-CD3 mAb stimulation, FIG. 1E, n=4
Method: A) PBMC from therapy-naïve MS patients (red) or HC (black) were cocultured with Treg and stimulated with anti-CD3 mAb. T cell proliferation was determined by ^3H-Tdr incorporation on day three. Box plots show percentage of suppression in presence of Treg (ratio 4:1) normalized to proliferation of T cells alone as median with interquartile range (n=15), P-values relative to T cells of HC are shown, to avoid familywise error rate bonferroni correction was used p*. B) C) IL-6R expression within CD3+ T cells of PBMC from HC or MS was determined by flow cytometry. One representative of eight independent experiments is shown. D) PKB/c-Akt phosphorylation was determined by flow cytometry within CD3^+ T cells of MS (red) or HC (black). Six different experiments are shown, p-values relative to MFI of HC. E) MS T cells with Treg were stimulated with anti-CD3 mAb without (circle) or with (quadrats) anti-IL-6R mAb or (triangles) Akt-VIII inhibitor. Each dot represents percentage of proliferation with Treg normalized to T cells alone (n=4), p-values to MS T cells.
CD4^+CD25^− T cells (10^5 cells/well, 96 well plate, flat bottom) were stimulated with 0.1 μg/ml anti-CD3 mAb (OKT-3) and cultured in presence or absence of different Treg ratios. CD3-depleted PBMC (5×10^4/well) were used as costimulus. […] T cell proliferation was measured by ^3H-Tdr incorporation using a liquid […] counter. […]

PKB/c-Akt = PKB/c-Akt phosphorylation in T cells after culture with IL-6 (flow cytometry)
Method: (§1) FIG. 5: IL-6 mediates Treg resistance by inducing the phosphorylation of PKB/c-Akt and downregulation of PTEN in activated T cells A) T cells and Treg were cocultured in presence (grey) or absence (black) of IL-6 and stimulated with anti-CD3 mAb. […] B) PKB/c-Akt phosphorylation was analyzed by flow cytometry within T cells after 24 h of culture with (black) or without IL-6 (grey). C) T cells from HC were incubated for 24 h without IL-6 (black) or with IL-6 (grey) or IL-6 and anti-IL-6R mAb (striped). Shown is the mean fluorescence intensity (MFI) of pPKB/c-Akt in T cells (n=5). D) PBMC from HC were cultured for 24 h in the presence or absence of 500 ng/ml IL-6. […] Total proteins were isolated and PTEN protein expression was analyzed via western blot.
Flow cytometric analysis was performed using the following antibodies: anti-human CD3 (UCHT1), anti-human CD4 (RPA-T4), anti-human CD8 (SK1), anti-human CD14 (M5E2), anti-human CD19 (HIB19), all from BD Pharmingen, anti-human CD25 (4E3), anti-human CD127 (MB15-18C9), all from Miltenyi Biotec. […] Cell viability during flow cytometric analysis was determined using 7-AAD and eFluor506 (eBioscience). […] Stained cells were measured on LSRII with FACS Diva Software (BD Bioscience) or FACSVia™ and data was analyzed with BD FACSVia Research Software (BD Biosciences). […]

[2] = system: CD4+CD25- T cells from healthy donors; assay: Suppressor assay: T cells and Treg cocultured in presence of IL-6 (3H-Tdr); settings: T cells from healthy donors incubated overnight with IL-6 (500 ng/ml)
Excerpt: In addition to PKB, also IL-6 and its signaling pathway play a crucial role in whether T cells from MS patients respond to suppression by Treg or not. In the context of autoimmune diseases, it has been investigated how the increased IL-6 production observed in MS can affect PTEN protein expression.
as §1
CD4^+CD25^− T cells (10^5 cells/well, 96 well plate, flat bottom) were stimulated with 0.1 μg/ml anti-CD3 mAb (OKT-3) and cultured in presence or absence of different Treg ratios. […] T cell proliferation was measured by ^3H-Tdr incorporation using a liquid […] counter. […]

PTEN protein = PTEN protein expression in IL-6-treated activated CD4+ T cells (Western blot); settings: IL-6-treated (500 ng/ml, 24 h) T cells, 2 hours after polyclonal activation, compared to untreated controls
Method: FIG. 5: IL-6 mediates Treg resistance by inducing the phosphorylation of PKB/c-Akt and downregulation of PTEN in activated T cells A) T cells and Treg were cocultured in presence (grey) or absence (black) of IL-6 and stimulated with anti-CD3 mAb. […] B) PKB/c-Akt phosphorylation was analyzed by flow cytometry within T cells after 24 h of culture with (black) or without IL-6 (grey). C) T cells from HC were incubated for 24 h without IL-6 (black) or with IL-6 (grey) or IL-6 and anti-IL-6R mAb (striped). Shown is the mean fluorescence intensity (MFI) of pPKB/c-Akt in T cells (n=5). D) PBMC from HC were cultured for 24 h in the presence or absence of 500 ng/ml IL-6. CD4^+ T cells were isolated, left unstimulated or were activated with anti-CD3 and anti-CD28 mAb for two hours. Total proteins were isolated and PTEN protein expression was analyzed via western blot.
Cell pellets were lysed in Cell Extraction Buffer (Invitrogen) supplemented with 1 mM PMSF (Invitrogen) and Protease Inhibitor Cocktail (Sigma) for 30 min on ice with vortexing at 10 min intervals. Total protein concentration of cell lysates was determined with Micro BCA Protein Assay Kit (Thermo Fisher Scientific) according to manufacturer's protocol. Protein separation was performed using the NuPAGE® Bis-Tris electrophoresis system (Thermo Fisher Scientific). […] Western blots were analyzed and quantified with ImageJ software.

Row | Compound | responsiveness towards Treg-mediated suppression [1] | IL-6-induced hyperactivation of PKB (PKB/c-Akt; T cells from HC, 24 h with IL-6 and anti-IL-6R mAb, n=5) | Treg resistance [2] | phosphorylation of protein kinase B (PKB/c-Akt; T cells from healthy donors, 24 h with IL-6) | PTEN protein expression (PTEN protein)
1 | O=c1[nH]c2ccccc2n1C1CCN(Cc2ccc(-c3nc4cc5nc[nH]c5cc4nc3-c3ccccc3)cc2)CC1 [Akt VIII] | restores responsiveness towards Treg-mediated suppression |  |  |  | 
2 | Tocilizumab [anti-IL-6 receptor antibody] | restores responsiveness towards Treg-mediated suppression | abolished this effect |  |  | 
3 | IL-6: cytokine IL-6 (ImmunoTools) added to cultures |  |  | induce Treg resistance | increased phosphorylation of protein kinase B | significant decrease in PTEN protein expression
